According to patent US20230263822A1, “MODULATION OF FACTOR 11 EXPRESSION” (Ionis Pharmaceuticals, Inc., priority 2008, published 2023):

Columns and labels:
[1] = Tolerability in CD1 mice: organ weight (Example 33); assay type: in vivo; conditions: 50 mg/kg s.c. twice a week, vs PBS control, normalized to body weight
Description: Three days after the last dose was administered to all groups, the mice were sacrificed.

[2] = tested on: human Factor 11 mRNA; test: Dose-dependent inhibition of human Factor 11 in HepB3 cells, lipofectin (Example 7); assay type: cell-based; conditions: for percent inhibition of Factor 11 mRNA relative to untreated control cells: ~16 hours
Description: Cells were plated at a density of 4,000 cells per well and transfected using lipofectin reagent with 2.3 nM, 4.7 nM, 9.4 nM, 18.75 nM, 37.5 nM, and 75 nM concentrations of antisense oligonucleotide, as specified in Table 14. After a treatment period of approximately 16 hours, RNA was isolated from the cells and human Factor 11 mRNA levels were measured by quantitative real-time PCR. Human Factor 11 primer probe set RTS 2966 was used to measure mRNA levels. Factor 11 mRNA levels were adjusted according to total RNA content, as measured by RIBOGREEN. Results are presented as percent inhibition of Factor 11, relative to untreated control cells.

[3] = tested on: human Factor 11 mRNA; test: Dose-dependent inhibition of human Factor 11 in HepG2 cells, lipofectin 2.34-75 nM (Example 5); assay type: cell-based; conditions: for percent inhibition of human Factor 11 mRNA relative to untreated control cells: ~16 hours
Description: Cells were plated at a density of 10,000 cells per well and transfected using lipofectin reagent with 2.34 nM, 4.69 nM, 9.375 nM, 18.75 nM, 37.5 nM, and 75 nM concentrations of antisense oligonucleotide, as specified in Table 11. After a treatment period of approximately 16 hours, RNA was isolated from the cells and human Factor 11 mRNA levels were measured by quantitative real-time PCR. Human Factor 11 primer probe set RTS 2966 was used to measure mRNA levels. Factor 11 mRNA levels were adjusted according to total RNA content, as measured by RIBOGREEN. Results are presented as percent inhibition of human Factor 11, relative to untreated control cells.

Substance | Percent change in kidney weight ([1]; 2 weeks) | Percent change in liver weight ([1]; 2 weeks) | Percent change in spleen weight ([1]; 2 weeks) | Percent change in kidney weight ([1]; 4 weeks) | Percent change in liver weight ([1]; 4 weeks) | Percent change in spleen weight ([1]; 4 weeks) | Percent change in kidney weight ([1]; 6 weeks) | Percent change in liver weight ([1]; 6 weeks) | Percent change in spleen weight ([1]; 6 weeks) | IC50 [2] | percent inhibition of Factor 11 mRNA relative to untreated control cells ([2]; 2.3 nM) | percent inhibition of Factor 11 mRNA relative to untreated control cells ([2]; 4.7 nM) | percent inhibition of Factor 11 mRNA relative to untreated control cells ([2]; 9.4 nM) | percent inhibition of Factor 11 mRNA relative to untreated control cells ([2]; 18.75 nM) | percent inhibition of Factor 11 mRNA relative to untreated control cells ([2]; 37.5 nM) | percent inhibition of Factor 11 mRNA relative to untreated control cells ([2]; 75 nM) | IC50 [3] | percent inhibition of human Factor 11 mRNA relative to untreated control cells ([3]; 2.34 nM) | percent inhibition of human Factor 11 mRNA relative to untreated control cells ([3]; 4.69 nM) | percent inhibition of human Factor 11 mRNA relative to untreated control cells ([3]; 9.375 nM) | further results
416825 (antisense GCCCTTCATGTCTAGGTCCA; 5-10-5 gapmer, further chemistry not given here) [compound 416825] | −12% | +5% | −12% | −12% | +22% | +19% | −11% | +13% | +21% | 0.035 µM | 0% | 15% | 34% | 36% | 53% | 59% | 0.013 µM | 4% | 22% | 39% | percent inhibition of human Factor 11 mRNA relative to untreated control cells ([3]; 18.75 nM): 57%; percent inhibition of human Factor 11 mRNA relative to untreated control cells ([3]; 37.5 nM): 79%; percent inhibition of human Factor 11 mRNA relative to untreated control cells ([3]; 75 nM): 89%
416826 (antisense ATGCCCTTCATGTCTAGGTC; 5-10-5 gapmer, further chemistry not given here) [compound 416826] | −13% | +10% | −12% | −7% | +32% | −5% | −22% | +33% | +22% | 0.016 µM | 16% | 28% | 38% | 55% | 64% | 66% | 0.015 µM | 15% | 22% | 32% | percent inhibition of human Factor 11 mRNA relative to untreated control cells ([3]; 18.75 nM): 54%; percent inhibition of human Factor 11 mRNA relative to untreated control cells ([3]; 37.5 nM): 76%; percent inhibition of human Factor 11 mRNA relative to untreated control cells ([3]; 75 nM): 90%
416838 (antisense GCAACCGGGATGATGAGTGC; 5-10-5 gapmer, further chemistry not given here) [compound 416838] | −2% | +8% | +21% | −12% | −6% | −8% | −8% | 0% | +9% | 0.011 µM | 23% | 34% | 43% | 59% | 71% | 56% | 0.01 µM | 21% | 37% | 50% | percent inhibition of human Factor 11 mRNA relative to untreated control cells ([3]; 18.75 nM): 63%; percent inhibition of human Factor 11 mRNA relative to untreated control cells ([3]; 37.5 nM): 74%; percent inhibition of human Factor 11 mRNA relative to untreated control cells ([3]; 75 nM): 83%
416850 (antisense TGCACAGTTTCTGGCAGGCC; 5-10-5 gapmer, further chemistry not given here) [compound 416850] | −0% | +5% | −4% | −12% | +3% | +6% | −11% | +6% | +48% | 0.013 µM | 22% | 32% | 43% | 56% | 75% | 60% | 0.013 µM | 24% | 31% | 49% | percent inhibition of human Factor 11 mRNA relative to untreated control cells ([3]; 18.75 nM): 55%; percent inhibition of human Factor 11 mRNA relative to untreated control cells ([3]; 37.5 nM): 70%; percent inhibition of human Factor 11 mRNA relative to untreated control cells ([3]; 75 nM): 77%
416858 (antisense ACGGCATTGGTGCACAGTTT; 5-10-5 gapmer, further chemistry not given here) [compound 416858] | +1% | +7% | −2% | −18% | +1% | +8% | −10% | +10% | +28% | 0.012 µM | 17% | 34% | 43% | 57% | 74% | 62% | 0.011 µM | 11% | 35% | 46% | percent inhibition of human Factor 11 mRNA relative to untreated control cells ([3]; 18.75 nM): 61%; percent inhibition of human Factor 11 mRNA relative to untreated control cells ([3]; 37.5 nM): 75%; percent inhibition of human Factor 11 mRNA relative to untreated control cells ([3]; 75 nM): 77%
416864 (antisense GGCAGCGGACGGCATTGGTG; 5-10-5 gapmer, further chemistry not given here) [compound 416864] | −4% | −2% | −10% | −9% | +2% | −2% | −15% | −5% | −6% | 0.009 µM | 24% | 37% | 42% | 66% | 76% | 63% | 0.015 µM | 13% | 34% | 42% | percent inhibition of human Factor 11 mRNA relative to untreated control cells ([3]; 18.75 nM): 65%; percent inhibition of human Factor 11 mRNA relative to untreated control cells ([3]; 37.5 nM): 68%; percent inhibition of human Factor 11 mRNA relative to untreated control cells ([3]; 75 nM): 80%
416892 (antisense GCCCTTCATGTCTAGGTCCA; 3-14-3 chimeric gapmer, further chemistry not given here) [compound 416892] | +2% | +35% | +24% | −3% | +88% | +30% | +19% | +95% | +65% | 0.009 µM | 28% | 34% | 50% | 68% | 82% | 72% | 0.009 µM | 14% | 34% | 49% | percent inhibition of human Factor 11 mRNA relative to untreated control cells ([3]; 18.75 nM): 70%; percent inhibition of human Factor 11 mRNA relative to untreated control cells ([3]; 37.5 nM): 84%; percent inhibition of human Factor 11 mRNA relative to untreated control cells ([3]; 75 nM): 93%
